ChEMBL document CHEMBL1201862, “PubChem BioAssay data set” (2004)
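Assay format: 96-well plates, 48-hour exposure. GI50: concentration for 50% inhibition of growth.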 Active and inactive are the calls of the source. No stated cut-off is given here; in the data, active = GI50 up to about 1.1 µM and inactive = higher.

How the values were obtained:
Assay in all cases: NCI anticancer screen, dose series, 48 h
[1] = tested on: UACC-257
[2] = tested on: HOP-92
[3] = tested on: HT-29
[4] = tested on: PC-3
[5] = tested on: LOX IMVI
[6] = tested on: A549
[7] = tested on: MDA-N
[8] = tested on: KM12
[9] = tested on: SN12C
[10] = tested on: HCT-116
[11] = tested on: SF-295
[12] = tested on: CCRF-CEM
[13] = tested on: U-251
[14] = tested on: MCF7
[15] = tested on: SK-MEL-2
[16] = tested on: MDA-MB-435
[17] = tested on: SNB-19
[18] = tested on: T47D
[19] = tested on: OVCAR-4
[20] = tested on: Malme-3M

Row | SMILES | GI50 [1] | GI50 [2] | GI50 [3] | GI50 [4] | GI50 [5] | GI50 [6] | GI50 [7] | GI50 [8] | GI50 [9] | GI50 [10] | GI50 [11] | GI50 [12] | GI50 [13] | GI50 [14] | GI50 [15] | GI50 [16] | GI50 [17] | GI50 [18] | GI50 [19] | GI50 [20]
1 | COc1ccc(/C=N\N2CC(=O)N3C4C=CC(CC4)N3C2=O)cc1 (stereo not given) | > 100 µM (inactive) | > 100 µM (inactive) | > 100 µM (inactive) | > 100 µM (inactive) | > 100 µM (inactive) | > 100 µM (inactive) | > 100 µM (inactive) | > 100 µM (inactive) | > 100 µM (inactive) | > 100 µM (inactive) | > 100 µM (inactive) | > 100 µM (inactive) | > 100 µM (inactive) | > 100 µM (inactive) | > 100 µM (inactive) | > 100 µM (inactive) | > 100 µM (inactive) | 85.7 µM (inactive) |  | 
2 | O=C(O/N=c1/ccc(=O)/c(=N\OC(=O)c2ccccc2)c1=O)c1ccccc1 |  | > 100 µM (inactive) | > 100 µM (inactive) | 76.4 µM (inactive) | > 100 µM (inactive) | > 100 µM (inactive) | > 100 µM (inactive) | > 100 µM (inactive) | > 100 µM (inactive) | > 100 µM (inactive) | > 100 µM (inactive) | 33 µM (inactive) | > 100 µM (inactive) | 1.81 µM (inactive) |  | 53.6 µM (inactive) | 76.2 µM (inactive) | > 100 µM (inactive) | > 100 µM (inactive) | 
3 | O=C1/C(=C/c2cccs2)N=C(c2ccccc2)N1c1nc2ccccc2s1 | > 100 µM (inactive) | 26.5 µM (inactive) | 36.3 µM (inactive) | > 100 µM (inactive) | > 100 µM (inactive) | 41.5 µM (inactive) | 91.6 µM (inactive) | > 100 µM (inactive) | > 100 µM (inactive) | 38.4 µM (inactive) | > 100 µM (inactive) | 0.162 µM (active) | 95.1 µM (inactive) | 49.9 µM (inactive) | > 100 µM (inactive) | > 100 µM (inactive) | > 100 µM (inactive) | 57.3 µM (inactive) |  | 
4 | COc1cc(CC(C)=O)cc(OC)c1 | > 100 µM (inactive) | 29.9 µM (inactive) | 42.8 µM (inactive) | 11.3 µM (inactive) |  | > 100 µM (inactive) | 27.4 µM (inactive) |  | 46.8 µM (inactive) | 50.6 µM (inactive) | 91 µM (inactive) | 29.8 µM (inactive) | 63.5 µM (inactive) | 34.2 µM (inactive) |  | 41 µM (inactive) | > 100 µM (inactive) | 53.8 µM (inactive) | > 100 µM (inactive) | 51.2 µM (inactive)
5 | Oc1ccc(-c2nc3cc(C(F)(F)F)ccc3n2CC2CCCN3CCCCC23)cc1 (stereo not given) | 16.3 µM (inactive) | 14.9 µM (inactive) | 13.4 µM (inactive) | 14.1 µM (inactive) | 15.4 µM (inactive) |  | 16.2 µM (inactive) | 15.3 µM (inactive) |  | 15.7 µM (inactive) | 13.4 µM (inactive) | 14.7 µM (inactive) | 14.8 µM (inactive) | 12.6 µM (inactive) | 14.7 µM (inactive) | 13.5 µM (inactive) |  | 18.2 µM (inactive) | 15.1 µM (inactive) | 
6 | O=C1CCCC/C1=C\c1ccc([N+](=O)[O-])cc1 | 15.5 µM (inactive) | 19.6 µM (inactive) | 37.3 µM (inactive) | 2.03 µM (inactive) | 1.79 µM (inactive) | 25.5 µM (inactive) | 17.8 µM (inactive) | 18.3 µM (inactive) | 13.5 µM (inactive) | 12.4 µM (inactive) | 18.2 µM (inactive) | 2.91 µM (inactive) | 16.1 µM (inactive) | 18.5 µM (inactive) | 21.5 µM (inactive) | > 10 µM (inactive) | 17.1 µM (inactive) | 23.6 µM (inactive) | 22.5 µM (inactive) | 
